The results in this text go back to PubChem BioAssay AID328 (DTP/NCI, 2004).

“And” between values parts separate entries of the source, which are not always exact repeats. Identical values can stand only once. Inconclusive results and toxic doses are left out. Non-standard residues stand in square brackets, D forms with d. Residues, ends and D or L forms follow the SMILES beside them. ξ: configuration not given here. *: point of attachment. Cbz = O=C(OCc1ccccc1)*; ξK = NCCCCC(N)C(=O)O

In this assay the test system is BDF1 mice, P388 leukemia ip, median survival T/C. Nature of the assay: NCI In Vivo Anticancer Drug Screen. Data for tumor model P388 Leukemia (intraperitoneal) in B6D2F1 (BDF1) mice. As to conditions: endpoint: median survival time, higher = longer survival. The gist of the method:
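Compound-treated tumour-bearing mice were compared with vehicle-treated controls. Survival was recorded, and the value is the treated-group measurement divided by the control-group measurement (T/C).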

The mark [1] stands for this setting: dose: 100.0 mg/kg/injection, schedule: Q01DX009 (ip), vehicle: saline with Tween-80.
The mark [2] stands for this setting: dose: 50.0 mg/kg/injection, schedule: Q01DX009 (ip), vehicle: Klucel (hydroxypropylcellulose) (HPC).
Where [3] appears, read: dose: 100.0 mg/kg/injection, schedule: Q04DX003 (ip), vehicle: Klucel (hydroxypropylcellulose) (HPC).
Setting [4] is: dose: 12.5 mg/kg/injection, schedule: Q01DX009 (ip), vehicle: saline.
Where [5] appears, read: dose: 25.0 mg/kg/injection, schedule: Q01DX009 (ip), vehicle: saline.
Where [6] appears, read: dose: 100.0 mg/kg/injection, schedule: Q04DX003 (ip), vehicle: saline with Tween-80.
[7] abbreviates: dose: 200.0 mg/kg/injection, schedule: Q01DX009 (ip), vehicle: saline with Tween-80.
[8] abbreviates: dose: 200.0 mg/kg/injection, schedule: Q04DX003 (ip), vehicle: saline with Tween-80.
[9] abbreviates: dose: 400.0 mg/kg/injection, schedule: Q01DX009 (ip), vehicle: saline with Tween-80.
The mark [10] stands for this setting: dose: 400.0 mg/kg/injection, schedule: Q04DX003 (ip), vehicle: saline with Tween-80.
Where [11] appears, read: dose: 50.0 mg/kg/injection, schedule: Q04DX003 (ip), vehicle: saline.
The mark [12] stands for this setting: dose: 200.0 mg/kg/injection, schedule: Q04DX003 (ip), vehicle: Klucel (hydroxypropylcellulose) (HPC).
[13] abbreviates: dose: 400.0 mg/kg/injection, schedule: Q04DX003 (ip), vehicle: Klucel (hydroxypropylcellulose) (HPC).
Setting [14] is: dose: 50.0 mg/kg/injection, schedule: Q04DX003 (ip), vehicle: saline with Tween-80.

As for `O=C(N1CCCC1)C(F)(F)C(F)(F)C(F)(F)F`, the T/C runs as follows: (dose: 50.0 mg/kg/injection, schedule: Q01DX009 (ip), vehicle: saline with Tween-80) 90 % of control; under setting [1], 99 % of control.

Regarding `CCCCCCOP(=O)(CCCCCC)OCCCCCC`, the T/C is 108 % of control (dose: 25.0 mg/kg/injection, schedule: Q01DX009 (ip), vehicle: Klucel (hydroxypropylcellulose) (HPC)); 100 % of control (dose: 25.0 mg/kg/injection, schedule: Q04DX003 (ip), vehicle: Klucel (hydroxypropylcellulose) (HPC)); 104 % of control under setting [2]; 95 % of control (dose: 50.0 mg/kg/injection, schedule: Q04DX003 (ip), vehicle: Klucel (hydroxypropylcellulose) (HPC)); 113 % of control (dose: 100.0 mg/kg/injection, schedule: Q01DX009 (ip), vehicle: Klucel (hydroxypropylcellulose) (HPC)); 100 % of control under setting [3].

`CCC1C2CC3C4N(C)c5ccc(Br)cc5C45CC(C2C5O)[N+]3(CC(O)CN2CCCCC2)C1O` (configuration not stated): the T/C was 106 % of control under setting [4]; 115 % of control under setting [5]; 89 % of control and 93 % of control (dose: 50.0 mg/kg/injection, schedule: Q01DX009 (ip), vehicle: saline).

As to `C[C@H]1[C@H](O)[C@H]2[C@@H](CCC3=CC(=O)CC[C@@]32C)[C@@H]2CC[C@H](O)[C@@]12C`, the T/C was 100 % of control under setting [1]; 91 % of control under setting [6]; 87 % of control and 100 % of control under setting [7]; 95 % of control under setting [8]; 87 % of control and 118 % of control under setting [9]; 91 % of control under setting [10].

`CC(C)C1(C(C)C)OCCO1`: the T/C runs as follows: under setting [11], 87 % of control; (dose: 100.0 mg/kg/injection, schedule: Q04DX003 (ip), vehicle: saline) 108 % of control; (dose: 200.0 mg/kg/injection, schedule: Q04DX003 (ip), vehicle: saline) 100 % of control.

With `Cc1ccc(NC(=O)OCCSC(=O)COc2ccc(Cl)cc2Cl)cc1`, the T/C runs as follows: under setting [6], 100 % of control; under setting [8], 100 % of control; under setting [10], 104 % of control.

For `COc1ccc(-n2nc3c(c2-c2cccnc2)CCc2ccccc2-3)cc1`, the T/C reads like this: under setting [3], 103 % of control; under setting [12], 109 % of control; under setting [13], 105 % of control.

Take `CC(=O)NC(CCCCNC(=O)OCc1ccccc1)C(=O)NCC(=O)O` (configuration not stated) (Ac-[ξK](Cbz)-Gly-OH): the T/C reads like this: (dose: 50.0 mg/kg/injection, schedule: Q01DX005 (ip), vehicle: saline with Tween-80) 93 % of control; (dose: 100.0 mg/kg/injection, schedule: Q01DX005 (ip), vehicle: saline with Tween-80) 105 % of control; (dose: 200.0 mg/kg/injection, schedule: Q01DX005 (ip), vehicle: saline with Tween-80) 100 % of control.

With `O=C1OC(c2ccc(Cl)cc2)=N/C1=C\c1ccccc1`, the T/C reads like this: (dose: 100.0 mg/kg/injection, schedule: Q01DX001 (ip), vehicle: Klucel (hydroxypropylcellulose) (HPC)) 95 % of control; under setting [3], 86 % of control; (dose: 200.0 mg/kg/injection, schedule: Q01DX001 (ip), vehicle: Klucel (hydroxypropylcellulose) (HPC)) 95 % of control; under setting [12], 90 % of control; (dose: 400.0 mg/kg/injection, schedule: Q01DX001 (ip), vehicle: Klucel (hydroxypropylcellulose) (HPC)) 100 % of control; under setting [13], 95 % of control.

In the case of `COc1ccc2c(c1OC)CCN1C3=C(CC4(CC3)OCCO4)C(=O)CC21` (configuration not stated), the T/C was 105 % of control (dose: 100.0 mg/kg/injection, schedule: Q04DX003 (ip), vehicle: saline sonified); 100 % of control (dose: 200.0 mg/kg/injection, schedule: Q04DX003 (ip), vehicle: saline sonified); 90 % of control (dose: 400.0 mg/kg/injection, schedule: Q04DX003 (ip), vehicle: saline sonified).

For the compound `C/C=C/C1=C(Cl)C(=O)[C@@H](Cl)[C@@]1(O)C(=O)OC`, the T/C (dose: 0.31 mg/kg/injection, schedule: Q01DX009 (ip), vehicle: saline with Tween-80) is 106 % of control; the T/C (dose: 0.63 mg/kg/injection, schedule: Q01DX009 (ip), vehicle: saline with Tween-80) was 115 % of control; the T/C (dose: 1.25 mg/kg/injection, schedule: Q01DX009 (ip), vehicle: saline with Tween-80) is 106 % of control and 117 % of control; the T/C (dose: 2.5 mg/kg/injection, schedule: Q01DX001 (ip), vehicle: saline with Tween-80) was 106 % of control; the T/C (dose: 2.5 mg/kg/injection, schedule: Q04DX003 (ip), vehicle: saline with Tween-80) was 105 % of control; the T/C (dose: 4.4 mg/kg/injection, schedule: Q01DX009 (ip), vehicle: saline with Tween-80) was 121 % of control. Besides, the T/C runs as follows: (dose: 5.0 mg/kg/injection, schedule: Q01DX001 (ip), vehicle: saline with Tween-80) 101 % of control; (dose: 5.0 mg/kg/injection, schedule: Q04DX003 (ip), vehicle: saline with Tween-80) 110 % of control; (dose: 6.6 mg/kg/injection, schedule: Q01DX009 (ip), vehicle: saline with Tween-80) 122 % of control; (dose: 8.8 mg/kg/injection, schedule: Q01DX009 (ip), vehicle: saline with Tween-80) 114 % of control; (dose: 10.0 mg/kg/injection, schedule: Q01DX001 (ip), vehicle: saline with Tween-80) 108 % of control; (dose: 10.0 mg/kg/injection, schedule: Q04DX003 (ip), vehicle: saline with Tween-80) 108 % of control. Besides, the T/C was 123 % of control (dose: 13.3 mg/kg/injection, schedule: Q01DX009 (ip), vehicle: saline with Tween-80); 119 % of control (dose: 17.0 mg/kg/injection, schedule: Q01DX001 (ip), vehicle: saline with Tween-80); 112 % of control (dose: 20.0 mg/kg/injection, schedule: Q01DX001 (ip), vehicle: saline with Tween-80).

As to `CNC(CNC(CO)CC(C)C)Cc1ccc(OCc2ccccc2)cc1` (configuration not stated), the T/C was 104 % of control under setting [4] and 100 % of control under setting [5].

With `C1CCC2(CC1)SSC1(CCCCC1)S2`, the T/C by setting is: (dose: 50.0 mg/kg/injection, schedule: Q01DX009 (ip), vehicle: other) 104 % of control; (dose: 100.0 mg/kg/injection, schedule: Q01DX009 (ip), vehicle: other) 100 % of control; (dose: 200.0 mg/kg/injection, schedule: Q01DX009 (ip), vehicle: other) 95 % of control.

For the compound `COc1cc2cc[n+](C)c(Cc3ccccc3)c2cc1OC`, the T/C is 100 % of control (dose: 12.5 mg/kg/injection, schedule: Q01DX009 (ip), vehicle: saline with Tween-80); 159 % of control under setting [2]; 113 % of control under setting [14]; 90 % of control under setting [6].

In the case of `COc1ccc(/C=C/C(=O)c2ccccc2)cc1`, the T/C under setting [1] was 97 % of control; the T/C under setting [6] is 104 % of control; the T/C under setting [7] is 98 % of control; the T/C under setting [8] was 104 % of control; the T/C under setting [9] is 98 % of control; the T/C under setting [10] is 104 % of control.

For the compound `COc1cc(C(=O)C=C(C(F)(F)F)C(F)(F)F)cc(OC)c1OC`, the T/C is, setting by setting: under setting [14], 120 % of control; under setting [6], 120 % of control; under setting [8], 100 % of control.

Regarding `NCCc1ccc(OCc2ccccc2)c(OCc2ccccc2)c1`, the T/C was 100 % of control (dose: 8.0 mg/kg/injection, schedule: Q01DX009 (ip), vehicle: saline); 104 % of control (dose: 12.0 mg/kg/injection, schedule: Q01DX009 (ip), vehicle: saline); 104 % of control (dose: 12.5 mg/kg/injection, schedule: Q04DX003 (ip), vehicle: saline); 116 % of control (dose: 18.0 mg/kg/injection, schedule: Q01DX009 (ip), vehicle: saline); 104 % of control (dose: 25.0 mg/kg/injection, schedule: Q04DX003 (ip), vehicle: saline); 100 % of control under setting [11].
